Results: PMC5965259 (Journal of medicinal chemistry, 2018)

The molecules below were run on bloodstream form T. brucei Lister 427 (assay: ATP–bioluminescence-based bloodstream form T. brucei cell viability assay). Conditions: Trypanosoma brucei, 48 h, read-out: Tb427 EC50.

SMILES | EC50 [µM]
Cc1cc(Nc2ccc(C(C)C)cc2)nc(N)n1 [Compound 87] | 11
Cc1cc(N)cc(Nc2cc(Cl)cc(Cl)c2)n1 [Compound 19, N^2-(3,5-Dichlorophenyl)-6-methylpyridine-2,4-diamine] | 13
Cc1cc(Nc2cc(Cl)c(O)c(Cl)c2)nc(N)n1 [Compound 67, 4-((2-Amino-6-methylpyrimidin-4-yl)amino)-2,6-dichlorophenol] | 13
Cc1cc(Nc2cc(C(=O)O)cc(C(=O)O)c2)nc(N)n1 [Compound 48, 5-((2-Amino-6-methylpyrimidin-4-yl)amino)isophthalic acid] | > 100
Cc1cc(Nc2cc(C(F)(F)F)cc(C(F)(F)F)c2)nc(N)n1 [Compound 46, N^4-(3,5-Bis(trifluoromethyl)phenyl)-6-methylpyrimidine-2,4-diamine] | 14
CCc1cc(Br)cc(Nc2cc(C)nc(N)n2)c1 [Compound 38, N^4-(3-Bromo-5-ethylphenyl)-6-methylpyrimidine-2,4-diamine] | 5.5
Nc1nc(Nc2cc(Cl)cc(Cl)c2)cc(C(F)(F)F)n1 [Compound 14] | 10
Cc1cc(Nc2ccccc2C)nc(N)n1 [Compound 77] | > 25
Cc1cc(Nc2cc(Cl)cc(-c3cncs3)c2)nc(N)n1 [Compound 115, N^4-(3-Chloro-5-(thiazol-5-yl)phenyl)-6-methylpyrimidine-2,4-diamine] | 3.6
Cc1cc(Nc2cc(Cl)cc(-c3ccc(N(C)C)cc3)c2)nc(N)n1 [Compound 100, N^4-(5-Chloro-4′-(dimethylamino)-[1,1′-biphenyl]-3-yl)-6-methylpyrimidine-2,4-diamine] | 5
Cc1cc(Nc2cc(Cl)cc(-c3ccc4ccccc4c3)c2)nc(N)n1 [Compound 107, N^4-(3-Chloro-5-(naphthalen-2-yl)phenyl)-6-methylpyrimidine-2,4-diamine] | 1.7
CSc1ccccc1Nc1cc(C)nc(N)n1 [Compound 78] | > 25
Cc1cc(Nc2cc(Cl)cc(-c3ccc(F)cc3)c2)nc(N)n1 [Compound 91, N^4-(5-Chloro-4′-fluoro-[1,1′-biphenyl]-3-yl)-6-methylpyrimidine-2,4-diamine] | 1.6
Cc1cc(Nc2cc(S(C)(=O)=O)cc(S(C)(=O)=O)c2)nc(N)n1 [Compound 45, N^4-(3,5-Bis(methylsulfonyl)phenyl)-6-methylpyrimidine-2,4-diamine] | > 100
COc1ccc(-c2cc(Cl)cc(Nc3cc(C)nc(N)n3)c2)cc1 [Compound 93, N^4-(5-Chloro-4′-methoxy-[1,1′-biphenyl]-3-yl)-6-methylpyrimidine-2,4-diamine] | 4.5
Nc1cnccc1Nc1cc(Cl)cc(Cl)c1 [Compound 22, N^4-(3,5-Dichlorophenyl)pyridine-3,4-diamine] | 18
Cc1cc(Nc2cc(Cl)cc(Cl)c2)cc(N)n1 [Compound 20, N^4-(3,5-Dichlorophenyl)-6-methylpyridine-2,4-diamine] | 2.2
Cc1cc(Nc2cc(C(C)(C)C)cc(C(C)(C)C)c2)nc(N)n1 [Compound 53, N^4-(3,5-Di-tert-butylphenyl)-6-methylpyrimidine-2,4-diamine] | 4.1
Cc1cc(Nc2cc(Cl)c(F)c(Cl)c2F)nc(N)n1 [Compound 73, N^4-(3,5-Dichloro-2,4-difluorophenyl)-6-methylpyrimidine-2,4-diamine] | 10

SMILES | EC50 [µM]
CC(C)c1cc(Nc2cc(Cl)cc(Cl)c2)nc(N)n1 [Compound 10] | 4.7
Cc1cc(NCc2cc(Cl)cc(Cl)c2)nc(N)n1 [Compound 30, N^4-(3,5-Dichlorobenzyl)-6-methylpyrimidine-2,4-diamine] | 11
CCOc1cc(Br)cc(Nc2cc(C)nc(N)n2)c1 [Compound 39, N^4-(3-Bromo-5-ethoxyphenyl)-6-methylpyrimidine-2,4-diamine] | 4.4
Cc1cc(Nc2cc(Cl)cc(C(F)(F)F)c2)nc(N)n1 [Compound 34, N^4-(3-Chloro-5-(trifluoromethyl)phenyl)-6-methylpyrimidine-2,4-diamine] | 13
CCc1cc(Nc2cc(Cl)cc(Cl)c2)nc(N)n1 [Compound 9] | 4.7
Cc1cc(Nc2cc(Cl)cc(-c3ccc(Cl)c(C(F)(F)F)c3)c2)nc(N)n1 [Compound 105, N^4-(4′,5-Dichloro-3′-(trifluoromethyl)-[1,1′-biphenyl]-3-yl)-6-methylpyrimidine-2,4-diamine] | 1.5
Cc1cc(Nc2cc(Cl)cc(-c3cc4ccccc4o3)c2)nc(N)n1 [Compound 112, N^4-(3-(Benzofuran-2-yl)-5-chlorophenyl)-6-methylpyrimidine-2,4-diamine] | 1.4
CCCCOc1cc(Br)cc(Nc2cc(C)nc(N)n2)c1 [Compound 42, N^4-(3-Bromo-5-butoxyphenyl)-6-methylpyrimidine-2,4-diamine] | 1.9
Cc1cc(Nc2ccc(Cl)cc2C)nc(N)n1 [Compound 82] | > 25
CSc1cccc(Nc2cc(C)nc(N)n2)c1 [Compound 58] | > 25
Cc1cc(C)cc(Nc2cc(C)nc(N)n2)c1 [Compound 52, N^4-(3,5-Dimethylphenyl)-6-methylpyrimidine-2,4-diamine] | 19
Cc1cc(N(C)c2cc(Cl)cc(Cl)c2)nc(N)n1 [Compound 28, N^4-(3,5-Dichlorophenyl)-N^4,6-dimethylpyrimidine-2,4-diamine] | 38
Nc1cc(Nc2cc(Cl)cc(Cl)c2)nc(N)n1 [Compound 26, N^4-(3,5-Dichlorophenyl)pyrimidine-2,4,6-triamine] | 14
Cc1cc(Nc2cc(Cl)cc(Br)c2)nc(N)n1 [Compound 32, N^4-(3-Bromo-5-chlorophenyl)-6-methylpyrimidine-2,4-diamine] | 4.7
Cc1cc(Nc2cccc(S(F)(F)(F)(F)F)c2)nc(N)n1 [Compound 54, 6-Methyl-N^4-(3-(pentafluoro-λ^6-sulfaneyl)phenyl)pyrimidine-2,4-diamine] | 14
Cc1cc(Nc2cc(Cl)cc(C#N)c2)nc(N)n1 [Compound 33, 3-((2-Amino-6-methylpyrimidin-4-yl)amino)-5-chlorobenzonitrile] | 12
Cc1cc(Nc2cc(Br)cc(OCC(F)(F)F)c2)nc(N)n1 [Compound 40, N^4-(3-Bromo-5-(2,2,2-trifluoroethoxy)phenyl)-6-methylpyrimidine-2,4-diamine] | 4.2
Cc1cc(NCCc2cc(Cl)cc(Cl)c2)nc(N)n1 [Compound 31, N^4-(3,5-Dichlorophenethyl)-6-methylpyrimidine-2,4-diamine] | 5.7
Cc1cc(Nc2cc(Cl)cc(-c3ccccc3)c2)nc(N)n1 [Compound 35, N^4-(5-Chloro-[1,1′-biphenyl]-3-yl)-6-methylpyrimidine-2,4-diamine] | 4.5

SMILES | EC50 [µM]
Nc1nc(Nc2cc(Cl)cc(Cl)c2)cc(-c2ccccc2)n1 [Compound 11] | 7.2
Cc1cc(Nc2cc(Cl)cc(-c3cncnc3)c2)nc(N)n1 [Compound 117, N^4-(3-Chloro-5-(pyrimidin-5-yl)phenyl)-6-methylpyrimidine-2,4-diamine] | 58
Cc1cc(Nc2cc(Cl)cc(Cl)c2)nc(N(C)C)n1 [Compound 25, N^4-(3,5-Dichlorophenyl)-N^2,N^2,6-trimethylpyrimidine-2,4-diamine] | 14
Nc1nc2c(c(Nc3cc(Cl)cc(Cl)c3)n1)CCC2 [Compound 15] | 19
Cc1cc(Nc2cc(Cl)cc(-c3ccc(C(F)(F)F)cc3)c2)nc(N)n1 [Compound 95, N^4-(5-Chloro-4′-(trifluoromethyl)-[1,1′-biphenyl]-3-yl)-6-methylpyrimidine-2,4-diamine] | 2
Cc1cc(Nc2cc(Cl)cc(-c3ccsc3)c2)nc(N)n1 [Compound 113, N^4-(3-Chloro-5-(thiophen-3-yl)phenyl)-6-methylpyrimidine-2,4-diamine] | 29
Cc1cc(Nc2cccc(Br)c2)nc(N)n1 [Compound 56] | 22
Nc1ccnc(Nc2cc(Cl)cc(Cl)c2)c1 [Compound 18, N^2-(3,5-Dichlorophenyl)pyridine-2,4-diamine] | 38
COC(=O)c1cc(Nc2cc(C)nc(N)n2)cc(C(=O)OC)c1 [Compound 49, Dimethyl 5-((2-amino-6-methylpyrimidin-4-yl)amino)isophthalate] | 42
CCc1cc(Nc2cc(C)nc(N)n2)cc(-c2ccc(F)cc2)c1 [Compound 118, N^4-(5-Ethyl-4′-fluoro-[1,1′-biphenyl]-3-yl)-6-methylpyrimidine-2,4-diamine] | 1.3
Cc1cc(Nc2cc(Cl)cc(-c3cccc(Cl)c3)c2)nc(N)n1 [Compound 102, N^4-(3′,5-Dichloro-[1,1′-biphenyl]-3-yl)-6-methylpyrimidine-2,4-diamine] | 1.9
Cc1cc(Nc2cccc(F)c2)nc(N)n1 [Compound 57] | > 25
Cc1cc(Nc2cc(Br)c(F)c(Br)c2)nc(N)n1 [Compound 63, N^4-(3,5-Dibromo-4-fluorophenyl)-6-methylpyrimidine-2,4-diamine] | 4.6
Cc1cc(Nc2cc(-c3ccccc3)cc(-c3ccccc3)c2)nc(N)n1 [Compound 50, N^4-([1,1′:3′,1″-Terphenyl]-5′-yl)-6-methylpyrimidine-2,4-diamine] | 1.5
Cc1cc(Nc2cc(Cl)cc(S(F)(F)(F)(F)F)c2)nc(N)n1 [Compound 36, N^4-(3-Chloro-5-(pentafluoro-λ^6-sulfaneyl)phenyl)-6-methylpyrimidine-2,4-diamine] | 13
Cc1cc(Nc2cc(C(=O)Nc3cc(Cl)cc(Cl)c3)cc(C(=O)Nc3cc(Cl)cc(Cl)c3)c2)nc(N)n1 [Compound 51, 5-((2-Amino-6-methylpyrimidin-4-yl)amino)-N^1,N^3-bis(3,5-dichlorophenyl)isophthalamide] | 2
Nc1nc(Nc2cc(Cl)cc(Cl)c2)cc(N2CCOCC2)n1 [Compound 12] | 13
Cc1cc(Nc2cc(Cl)c(OC(F)F)c(Cl)c2)nc(N)n1 [Compound 68, N^4-(3,5-Dichloro-4-(difluoromethoxy)phenyl)-6-methylpyrimidine-2,4-diamine] | 4.5
